The values below come from patent US20250051293A1, “NOVEL OXADIAZOLE DERIVATIVE AND USE THEREOF” (CELROS BIOTECH, priority 2021, published 2025).

The subject of one data set is U87. Briefly: Mouse model xenografted with brain tumor glioblastoma U87. The class given is in vivo, mice. The protocol: To confirm the therapeutic effect on brain tumor glioblastoma, U87 (5×10^4), a human brain tumor cell line, was xenografted into the brains of mice to establish a brain tumor model, followed by oral administration of the drugs.
Different experimental groups were evaluated for each compound.
First, with respect to the compound of Example 1, the experimental groups were divided into Vehicle (n=3) and the compound of Example 1, 50 mg/kg (n=3) and the administered with the drug orally 5 times a week 20 days after U87 xenografting.
With respect to the compound of Example 2, the experimental groups were divided into Vehicle (n=9), TMZ 5 mg/kg (Temozolomide, n=10, 2 times per week), the compound of Example 2, 50 mg/kg (n=8, 5 times per week), and combination (TMZ+the compound of Example 2, n=7), and began receiving the drug 20 days after U87 xenografting.

Another data set has as its target T1, human NOX2 (Homo sapiens, UniProt P04839).
T1 construct: made in house; host or cells: transgenic Drosophila (Da-GAL4 driven UAS-hNOX2, dDuox RNAi background); membranes from homogenized flies
T1 sequence (P04839 2-570 limits assumed): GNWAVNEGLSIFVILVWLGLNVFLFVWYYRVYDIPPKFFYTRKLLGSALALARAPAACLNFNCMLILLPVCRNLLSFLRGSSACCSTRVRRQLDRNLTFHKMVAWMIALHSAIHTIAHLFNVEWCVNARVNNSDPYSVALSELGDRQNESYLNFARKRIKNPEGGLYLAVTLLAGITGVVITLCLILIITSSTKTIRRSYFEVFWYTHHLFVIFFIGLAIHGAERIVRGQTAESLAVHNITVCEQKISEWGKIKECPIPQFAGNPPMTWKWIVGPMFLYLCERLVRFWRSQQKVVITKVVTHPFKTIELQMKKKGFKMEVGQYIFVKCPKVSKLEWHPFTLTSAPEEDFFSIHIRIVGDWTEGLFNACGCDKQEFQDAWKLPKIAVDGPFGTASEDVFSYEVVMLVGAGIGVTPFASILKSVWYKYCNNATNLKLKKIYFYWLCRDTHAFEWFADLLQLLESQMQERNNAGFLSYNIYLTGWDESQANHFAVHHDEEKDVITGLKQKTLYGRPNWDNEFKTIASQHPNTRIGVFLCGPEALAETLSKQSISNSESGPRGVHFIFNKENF
Briefly: Lucigenin chemiluminescence assay, drosophila membranes expressing hNOX2. The settings on record: average of three repeats. In kind it is biochemical. How it is done: Human NOX isozymes were provided from transgenic flies expressing human NOX isozymes from the daughterless (Da)-GAL4 promoter. The genotype of each fly line is shown below. • human NOX2:UAS-hNOX2/UAS-dDuox-RNAi; Da-GAL4/+ • human NOX4:UAS-hNOX4/UAS-dDuox-RNAi; Da-GAL4/+
Transgenic flies were homogenized in PBS containing protease inhibitors (aprotinin, leupeptin) to obtain drosophila membranes of each NOX isozyme. The membranes were incubated with the compounds (100 μM, 10 μM, 1 μM, 0.1 μM, 0.01 μM, 0.001 μM, and 0 μM) for 10 minutes in a shaker. Then, to the membranes, a mixture of 500 μM NADPH (R-nicotinamide adenine dinucleotide 2′-phosphate reduced tetrasodium salt hydrate; Sigma-Aldrich) and 400 μM lucigenin (N,N′-dimethyl-9,9-biacridinium dinitrate; Sigma-Aldrich) in 1× HEPES (4-(2-hydroxyethyl)-1-piperazineethanesulfonic acid) buffer was added. Lucigenin chemiluminescence was detected at 1-minute intervals for 10 minutes using a multimode microplate reader (SpectraMax iD3, Molecular Devices). IC50 values were calculated with Graph-Pad Prism 5 (GraphPad Software).
The lucigenin chemiluminescence assay was performed with drosophila membranes expressing hNOX1, hNOX2, and hNOX4. The assay was repeated three times and the IC50 values were averaged.

The nature of data set [1]: Cytotoxicity experiment (MTT assay) HepG2. The class given is cell-based. The settings on record: human, HepG2 cells. How it is done:
(§1) HepG2 (human hepatocellular carcinoma) and HT-22 (mouse hippocampal neuronal cell line) were seeded at densities of 1×10^5 or 1.5×10^4 per well in a 48-well plate and incubated for at least 12 hours, then treated with compounds of Example 1 and Example 2 at various concentrations (0 nM, 1 nM, 10 nM, 100 nM, 1000 nM, 10000 nM, 100000 nM, and 1000000 nM) and incubated for 24 hours. MTT solution (Thiazolyl Blue Tetrazolium Bromide 2 mg/ml) was subsequently added at 30 μl per well. After incubation for 4 hours, the culture medium containing the MTT solution was removed and 300 μl of DMSO was added to dissolve the MTT-formazan. 100 μl of the solution in each well was transferred to a 96-well plate and the absorbance was measured at 570 nm. IC50 values were calculated with Graph-Pad Prism 5 (GraphPad Software). The cell viability of the groups treated with the compounds of Example 1 and Example 2 at each concentration was determined relative to control group in which HepG2 cells were treated with DMSO alone, in at least five replicates.

Another data set is described as follows: PAMPA-BBB assay. In kind it is in vitro ADME. The settings on record: incubation 4 hr, pH 7.4, 25° C., U.V, read-out: Permeability Pe. The protocol: The parallel artificial membrane permeability assay (PAMPA) was performed to determine the brain barrier blood (BBB) permeability. […] For the Blank measurement, the donor buffer was dispensed into a high sensitivity UV plate at 150 μl per well and the UV values were measured (Blank sample). For the initial value measurement, the mixture in the deep well plate was dispensed 150 μl per well into the UV plate and the UV values were measured (initial sample). Next, 200 μl of the test compound mixture was dispensed onto the donor plate of the PAMPA sandwich, and the acceptor plate of the PAMPA sandwich was inverted and the membrane was coated with 5 μl of BBB-lipid solution. Then, 200 μl of acceptor sink buffer was added to each well of the acceptor plate, and the acceptor plate and donor plate were combined and incubated at 25° C. for 4 hours. […] Finally, the permeability (Pe(10^−6 cm/sec)) was analyzed using the PAMPA explore program. The experiment was performed in three replicates. The permeability of the material was analyzed by UV measurement and LC-MS/MS, the specific conditions of which are described below.

Data set [2] can be described thus: Cytotoxicity experiment (MTT assay) HT-22. In kind it is cell-based. The settings on record: mouse, HT-22 cells. The protocol: as §1
For orientation: Tetrazolium assays rely on reduction of a dye to a coloured formazan, in cell work by metabolically active cells.

For a further data set, the system named is BV2 cells. Put plainly: NOX inhibition assay in BV2 cells (LPS-induced reactive oxygen species, lucigenin). The class given is cell-based, mouse. The settings on record: BV2 cells pre-treated 30 minutes, LPS 10 ng/ml, 0-10000 nM. How it is done: BV2 cells, a mouse microglial cell line, were washed with Hank's balanced salt solution (HBSS) and stabilized by incubation at 37° C. in HBSS for 30 minutes. Then, the compounds (compound of Example 1 or compound of Example 2) were treated at various concentrations (0 nM, 1 nM, 10 nM, 100 nM, 1000 nM, and 10000 nM). After 30 minutes, 10 ng/ml of lipopolysaccharide (LPS) and 200 μM of lucigenin were added to the cells. Lucigenin chemiluminescence induced by active oxygen (reactive oxygen species) was detected at 10-second intervals for 15 minutes using a luminometer (GLOMA, Promega).

Setting [3] is: Example 1 study: 50 mg/kg orally 5 times a week.

pIC50: −log10 of the molar value.

In general, pIC50 refers to −log10 of the IC50, conventionally taken in molar units. As usually defined, the IC50 is the concentration that inhibits the measured activity by half. `O=C(Nc1nnc(-c2cccc(Cl)c2)o1)c1cc(F)cc(C(F)(F)F)c1` [Example 1, N-(5-(3-chlorophenyl)-1,3,4-oxadiazol-2-yl)-3-fluoro-5-(trifluoromethyl)benzamide]: in the data set with U87 (setting [3]), the “brain tumor growth (MRI)” value is recorded as “inhibition of brain tumor growth” and the “extension of median survival compared to the vehicle group” value was found to be 17 days. The median survival in the data set on U87 (Example 1 study: 50 mg/kg orally 5 times a week from 20 days after U87 xenografting, vehicle 31 days) worked out at 48 days. The pIC50 against human NOX2 was 7.05. The compound also showed an IC50 at 24 h in data set [1] of 4.2 µM. The Papp at 4 h, 50 μM in the data set “PAMPA-BBB assay” (50 μM) is above 0.4 ×10⁻⁶ cm/s. This compound also gave an IC50 at 24 h in data set [2] of 2 µM. For the same compound, the “production of reactive oxygen species” value in the data set with BV2 cells is given as “significantly reduced”.
For the compound `O=C(Nc1nnc(-c2ccccc2)o1)c1ccc(F)c(C(F)(F)F)c1` [Example 2, 4-fluoro-N-(5-phenyl-1,3,4-oxadiazol-2-yl)-3-(trifluoromethyl)benzamide], the “tumor growth rate (MRI)” value in the data set on U87 (Example 2 study: Example 2 50 mg/kg 5 times per week, TMZ 5 mg/kg 2 times per week) was “inhibited the tumor growth rate”. Also, in the data set on U87 (Example 2 study: Example 2 50 mg/kg 5 times per week, TMZ 5 mg/kg 2 times per week, from 20 days after xenografting, vehicle 42 days), the median survival time was 46 days. At human NOX2, this compound showed a negative logarithm of the IC50 (pIC50) of 6.59. Further, the IC50 at 24 h came out at 1100 µM in data set [1] and 5.5 µM in data set [2]. In the data set “PAMPA-BBB assay” (10 μM), the Papp at 4 h, 10 μM is above 0.4 ×10⁻⁶ cm/s. In the data set on BV2 cells, the “production of reactive oxygen species” value is “significantly reduced”.
